Test results from patent US20210261621A1, “Preparation of Dilipid Polymixins and Use Thereof as Antimicrobial Adjuvants” (priority 2018, published 2021).
In brackets after ≈: the same amount, converted by molar mass. Positions of bridges follow the written chain, without caps; N, C: chain ends. Non-standard residues stand in square brackets, D forms with d. Residues, ends and D or L forms follow the SMILES beside them. *: point of attachment. Acetyl(1-adamantyl) = O=C(CC12CC3CC(CC(C3)C1)C2)*; Benzoyl(4-Ph) = O=C(c1ccc(-c2ccccc2)cc1)*; Dab = NCC[C@H](N)C(=O)O

Key:
pig erythrocytes = details: red cells of pig, 1 h, 512
[1] = system: S. maltophilia CAN-ICU 62584; assay type: cell-based, Stenotrophomonas maltophilia; details: S. maltophilia CAN-ICU 62584
Text: (§1) Bacterial strains were either obtained from the American Type Culture Collection (ATCC), Canadian National Intensive Care Unit (CAN-ICU) surveillance study or the Canadian Ward Surveillance (CANWARD) study. Strains from both CAN-ICU and CANWARD are isolates recovered from patients diagnosed with a presumed infectious disease that were admitted in a participating medical center across Canada. Efflux-deficient strain PAO200 (lacking MexAB-OprM efflux system) and PA0750 (lacking MexAB-OprM, MexCD-OprJ, MexEF-OprN, MexJK and MexXY efflux systems, and the outer membrane protein OpmH) were kindly gifted by Dr. Ayush Kumar (University of Manitoba).
(§2) The in vitro antibacterial activity of the compounds studied were assessed by broth microdilution susceptibility testing following CLSI guidelines. Bacterial cultures were grown overnight prior to the assay. The overnight grown cultures were diluted in saline to 0.5 McFarland turbidity, followed by 1:50 dilution in Mueller-Hinton broth (MHB) for inoculation to a final concentration of approximately 5×10^5 colony forming units/mL. Testing was performed on 96-well plates where the tested compounds were 2-fold serially diluted in MHB and incubated with equal volumes of bacterial inoculum at 37° C. for 18 h. […] Wells containing MHB with or without bacterial cells were used as positive or negative control, respectively.

MRSE CAN-ICU 61589 = assay type: cell-based, S. epidermidis; details: MRSE CAN-ICU 61589 (methicillin-resistant S. epidermidis)
Text: as §1, §2

[2] = system: E. coli CANWARD-2011 97615; assay type: cell-based, Escherichia coli
Text: as §1, §2

A. baumannii AB027 = assay type: cell-based, Acinetobacter baumannii; details: A. baumannii AB027
Text: as §1, §2

P. aeruginosa ATCC 27853 = assay type: cell-based, Pseudomonas aeruginosa; details: P. aeruginosa ATCC 27853
Text: as §1, §2

P. aeruginosa PA100036 = assay type: cell-based, Pseudomonas aeruginosa; details: P. aeruginosa PA100036
Text: as §1, §2

[3] = system: P. aeruginosa PA260-97103; assay type: cell-based, Pseudomonas aeruginosa; details: P. aeruginosa PA260-97103
Text: as §1, §2

P. aeruginosa PA095 = assay type: cell-based, Pseudomonas aeruginosa; details: P. aeruginosa PA095
Text: as §1, §2

[4] = system: P. aeruginosa CANWARD-2011 96846; assay type: cell-based, Pseudomonas aeruginosa
Text: as §1, §2

[5] = system: P. aeruginosa PA264-104354; assay type: cell-based, Pseudomonas aeruginosa; details: P. aeruginosa PA264-104354
Text: as §1, §2

P. aeruginosa PA101885 = assay type: cell-based, Pseudomonas aeruginosa; details: P. aeruginosa PA101885
Text: as §1, §2

[6] = system: P. aeruginosa PA259-96918; assay type: cell-based, Pseudomonas aeruginosa; details: P. aeruginosa PA259-96918
Text: as §1, §2

[7] = system: P. aeruginosa CAN-ICU 62308; assay type: cell-based, Pseudomonas aeruginosa; details: P. aeruginosa CAN-ICU 62308
Text: as §1, §2

[8] = system: P. aeruginosa PA262-101856; assay type: cell-based, Pseudomonas aeruginosa; details: P. aeruginosa PA262-101856
Text: as §1, §2

P. aeruginosa PAO1 = assay type: cell-based, Pseudomonas aeruginosa; details: P. aeruginosa PAO1 (wild type)
Text: as §1, §2

E. faecium ATCC 27270 = assay type: cell-based; details: E. faecium ATCC 27270
Text: as §1, §2

S. pneumoniae ATCC 49619 = assay type: cell-based; details: S. pneumoniae ATCC 49619
Text: as §1, §2

E. faecalis ATCC 29212 = assay type: cell-based; details: E. faecalis ATCC 29212
Text: as §1, §2

E. cloacae 117029 = assay type: cell-based, Enterobacter cloacae; details: E. cloacae 117029
Text: as §1, §2

Row | Compound | % Hemolysis at 512 μg/mL of polymyxin (pig erythrocytes) [%] | MIC [1] [µg/mL] | MIC (MRSE CAN-ICU 61589) [µg/mL] | MIC [2] [µg/mL] | MIC (A. baumannii AB027) [µg/mL] | MIC (P. aeruginosa ATCC 27853) [µg/mL] | MIC (P. aeruginosa PA100036) [µg/mL] | MIC [3] [µg/mL] | MIC (P. aeruginosa PA095) [µg/mL] | MIC [4] [µg/mL] | MIC [5] [µg/mL] | MIC (P. aeruginosa PA101885) [µg/mL] | MIC [6] [µg/mL] | MIC [7] [µg/mL] | MIC [8] [µg/mL] | MIC (P. aeruginosa PAO1) [µg/mL] | MIC (E. faecium ATCC 27270) [µg/mL] | MIC (S. pneumoniae ATCC 49619) [µg/mL] | MIC (E. faecalis ATCC 29212) [µg/mL] | MIC (E. cloacae 117029) [µg/mL]
1 | CC(C)C[C@@H]1NC(=O)[C@@H](Cc2ccccc2)NC(=O)[C@H](CCN)NC(=O)[C@@H](NC(=O)[C@H](CCN)NC(=O)[C@@H](NC(=O)[C@H](CCNC(=O)CC23CC4CC(CC(C4)C2)C3)NC(=O)CC23CC4CC(CC(C4)C2)C3)[C@@H](C)O)CCNC(=O)[C@H]([C@@H](C)O)NC(=O)[C@H](CCN)NC(=O)[C@H](CCN)NC1=O [Compound 4, Diadamantane Acetic Acid (Di-Adamantyl) Polymyxin] ({Acetyl(1-adamantyl)}-[Dab](Acetyl(1-adamantyl))T[Dab][Dab][Dab][dF]L[Dab][Dab]T; lactam 4-C) | 3.2 ± 0.4 | 64 (≈ 45.2 µM) | 16 (≈ 11.3 µM) | 64 (≈ 45.2 µM) | 64 (≈ 45.2 µM) | 16 (≈ 11.3 µM) | 8 (≈ 5.65 µM) | 4 (≈ 2.83 µM) | 4 (≈ 2.83 µM) | 32 (≈ 22.6 µM) | 8 (≈ 5.65 µM) | 8 (≈ 5.65 µM) | 8 (≈ 5.65 µM) | 16 (≈ 11.3 µM) | 8 (≈ 5.65 µM) | 4 (≈ 2.83 µM) | 16 (≈ 11.3 µM) | 32 (≈ 22.6 µM) | 32 (≈ 22.6 µM) | 4 (≈ 2.83 µM)
2 | CC(C)C[C@@H]1NC(=O)[C@@H](Cc2ccccc2)NC(=O)[C@H](CCN)NC(=O)[C@@H](NC(=O)[C@H](CCN)NC(=O)[C@@H](NC(=O)[C@H](CCNC(=O)c2ccc(-c3ccccc3)cc2)NC(=O)c2ccc(-c3ccccc3)cc2)[C@@H](C)O)CCNC(=O)[C@H]([C@@H](C)O)NC(=O)[C@H](CCN)NC(=O)[C@H](CCN)NC1=O [Compound 5, Dibiphenyl-4-Carboxylic Acid (Di-Biphenyl) Polymyxin] ({Benzoyl(4-Ph)}-[Dab](Benzoyl(4-Ph))T[Dab][Dab][Dab][dF]L[Dab][Dab]T; lactam 4-C) |  | 64 (≈ 45 µM) | 8 (≈ 5.62 µM) | 32 (≈ 22.5 µM) | 6 (≈ 4.21 µM) | 32 (≈ 22.5 µM) | 8 (≈ 5.62 µM) | 8 (≈ 5.62 µM) | 4 (≈ 2.81 µM) | 64 (≈ 45 µM) | 8 (≈ 5.62 µM) | 8 (≈ 5.62 µM) | 8 (≈ 5.62 µM) | 16 (≈ 11.2 µM) | 8 (≈ 5.62 µM) | 8 (≈ 5.62 µM) | 8 (≈ 5.62 µM) | 32 (≈ 22.5 µM) | 16 (≈ 11.2 µM) | 8 (≈ 5.62 µM)
3 | colistin [reference compound] |  | 64 | 128 |  | 0.25 | 2 | 1 | 0.5 | 0.25 |  | 2 | 1 | 0.25 | 2 | 2 | 1 | 256 | 512 | 256 | 0.125
